US12351574B2, “Selective ligands for modulation of GIRK channels” (Northeastern University, priority 2018, dated 2025)

Legend:
[1] = cardiovascular radiotelemetry in freely moving rats; format: in vivo, rat; conditions: 30 mg/kg
Protocol: Cardiovascular experiments: Radiotelemetry probes [Cat. no. HD-S11, Data Sciences International, St. Paul, MN, United States] were surgically implanted into the peritoneal cavity and sutured to the muscle wall in order to assess general motor activity and temperature. A pressure transducer was implanted into the femoral artery to assess cardiovascular responses [i.e., mean arterial blood pressure (MAP) and heart rate (HR)]. Animals were injected with selected compounds following a 10 min baseline period and data points were analayzed between 20 min and 60 min after injection. This allowed us to investigate ligand effects without confounding effects of animal handling or the injection itself and to allow the ligand to cross the blood-brain barrier.

GIRK1/4 = target: T1, GIRK1/4 (Homo sapiens, UniProt P48544+P48549); experiment: current inhibition by light-activated phosphatase 5-ptaseOCRL, HEK293 whole-cell patch-clamp, GIRK1/4; format: cell-based; set-up: expressed in transfected cells; conditions: HEK-293 cells
T1 sequence (P48549 1-501): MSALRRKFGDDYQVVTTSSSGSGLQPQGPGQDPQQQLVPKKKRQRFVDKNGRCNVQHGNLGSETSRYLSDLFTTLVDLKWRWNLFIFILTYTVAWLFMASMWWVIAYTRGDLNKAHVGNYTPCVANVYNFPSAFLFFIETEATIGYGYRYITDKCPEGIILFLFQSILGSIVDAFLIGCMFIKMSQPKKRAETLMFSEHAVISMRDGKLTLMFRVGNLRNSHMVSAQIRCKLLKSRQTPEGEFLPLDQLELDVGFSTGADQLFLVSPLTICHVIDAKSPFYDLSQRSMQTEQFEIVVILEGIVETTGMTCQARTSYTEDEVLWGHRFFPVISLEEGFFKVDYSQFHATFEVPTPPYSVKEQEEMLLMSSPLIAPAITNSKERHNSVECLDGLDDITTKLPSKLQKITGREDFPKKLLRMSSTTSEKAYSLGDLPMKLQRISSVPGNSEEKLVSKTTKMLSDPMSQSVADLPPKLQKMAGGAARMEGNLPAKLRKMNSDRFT
T1 sequence (P48544 1-419): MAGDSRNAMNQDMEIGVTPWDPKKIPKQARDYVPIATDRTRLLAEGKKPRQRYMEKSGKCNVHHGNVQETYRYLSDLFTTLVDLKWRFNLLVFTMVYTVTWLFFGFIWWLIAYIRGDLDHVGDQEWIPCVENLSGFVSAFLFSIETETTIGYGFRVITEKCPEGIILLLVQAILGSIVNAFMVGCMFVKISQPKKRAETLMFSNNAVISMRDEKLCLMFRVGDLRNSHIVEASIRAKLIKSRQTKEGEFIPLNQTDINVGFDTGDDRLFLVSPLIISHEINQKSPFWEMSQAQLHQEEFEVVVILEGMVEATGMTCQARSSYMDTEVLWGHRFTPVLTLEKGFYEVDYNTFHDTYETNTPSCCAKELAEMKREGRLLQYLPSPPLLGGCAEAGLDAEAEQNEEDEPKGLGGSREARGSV
Text: The inventors next pursued whole-cell patch-clamp experiments to further validate the model predictions and excised-patch results. Expression of a light-activated phosphatase that upon exposure to blue light dephosphorylates PI(4,5)P2 to PI(4)P and inhibits GIRK currents allowed recording of macroscopic currents in the absence and presence of ML297 and the two brain-specific GAT compounds. […] Since GAT1508 and ML297 only bind GIRK1 or GIRK1-like (i.e. “FD-containing”, “FD”=mimics the contribution of GIRK1 residues F137 and D173, see Example 2) subunits resulting in corresponding changes in channel-PIP2 interactions and channel activity, the inventors next sought to compare channel subunit specific interactions with PIP2 for subunits bound to the ligand (P-FD) versus those not bound to the ligand (P-WT) (FIGS. 19, 38A).
Culture of HEK293 cells: HEK293-T cells were obtained from ATCC and maintained in DMEM medium supplemented with 10% FBS and 1% penicillin and streptomycin (Hyclone). For patch-clamp studies, cells were seeded on glass coverslips and transfected 24-hours later using a polyethylenimine solution (1 mg/ml) at a ratio of 8 μl per μg of DNA. To study GIRK-currents, cells were transfected with 0.75 μg each of plasmids encoding GIRK1, GIRK2 or GIRK4 as indicated. In the optogenetic experiments, cells were co-transfected with plasmids encoding 5-ptaseOCRL and CIBN-CAAX, as previously described. 5-ptaseOCRL and CIBN-CAAX were a kind gift from the DeCamilli lab, Yale CT. All experiments were performed at room temperature 24-36 hours post transfection. […]
Patch-clamp recording: Whole-cell currents were recorded with an Axopatch 200B amplifier (Molecular Devices) controlled via a USB-interface (National Instruments) using WinWCP software (University of Strathclyde). […] The barium-sensitive component of the current, observed when cells were perfused with the high-K^+ buffer, was analyzed and was determined by perfusing 5 mM BaCl2 in the high-K^+ buffer at the end of each experiment. […]

| protection of GIRK1/4 currents from inhibition by the light-activated phosphatase (in words) (GIRK1/4) | Structure (SMILES) | change in heart rate (HR) (in words) [1] | change in locomotor activity (LA) (in words) [1] | change in mean arterial pressure (MAP) (in words) [1] | change in body temperature (BT) (in words) [1] |
| --- | --- | --- | --- | --- | --- |
| not | Cc1cc(NC(=O)Nc2ccc(Br)s2)n(-c2ccccc2)n1 [GAT1508, 1-(5-bromothiophen-2-yl)-3-(3-methyl-1-phenyl-1H-pyrazol-5-yl)urea] | no significant changes | no significant changes | no significant changes |  |
| some protection | Cc1cc(NC(=O)Nc2ccc(F)c(F)c2)n(-c2ccccc2)n1 [ML297, reference compound] | paradoxical long-lasting increases | without affecting significantly | paradoxical long-lasting increases | without affecting significantly |
| not | Cc1cc(NC(=O)Nc2ccc(C)s2)n(-c2ccccc2)n1 [GAT1521, 1-(3-methyl-1-phenyl-1H-pyrazol-5-yl)-3-(5-methylthiophen-2-yl)urea] |  |  |  |  |
